The test system of this data set is Rattus norvegicus.
The mark [1] stands for this setting: reproduction developmental, oral, gavage, F, Crl:CD(SD), generation: P0, P0: Endocrine: Adrenal: Adrenal Gland Histopathology + P0: Endocrine: Adrenal: Adrenal Gland Weight, Absolute + P0: Endocrine: Adrenal: ….
[2] abbreviates: reproduction developmental, oral, gavage, F, Crl:CD(SD), generation: P0, P0: Hematologic: Multi-Organ: Activated Partial Thromboplastin Time (APTT) + P0: Hematologic: Multi-Organ: Hematocrit (HCT) + P0: ….
Setting [3] is: reproduction developmental, oral, gavage, M, Crl:CD(SD), generation: P0, P0: Endocrine: Adrenal: Adrenal Gland Histopathology + P0: Endocrine: Adrenal: Adrenal Gland Weight, Absolute + P0: Endocrine: Adrenal: ….
[4] abbreviates: reproduction developmental, oral, gavage, M, Crl:CD(SD), generation: P0, P0: Hematologic: Multi-Organ: Activated Partial Thromboplastin Time (APTT) + P0: Hematologic: Multi-Organ: Hematocrit (HCT) + P0: ….
The mark [5] stands for this setting: short-term, duration: 10 days, oral, gavage, M, Sprague-Dawley, Endocrine: Multi-Organ: Follicle Stimulating Hormone (FSH), Serum + Endocrine: Multi-Organ: Leuteinizing Hormone (LH), Serum + Endocrine: ….
The mark [6] stands for this setting: short-term, duration: 10 days, oral, gavage, M, Sprague-Dawley, Endocrine: Multi-Organ: Testosterone (T), Serum + Reproductive: Epididymis: Epididymis Weight, Absolute + Reproductive: Epididymis: ….
Where [7] appears, read: short-term, duration: 4 weeks, inhalation, F, Wistar, Adrenal: Adrenal Cortex, Minimal Diffuse Hypertrophy + Blood: Calcium (CA), Blood + Blood: Chloride (CL), Blood + Blood: Inorganic ….
Where [8] appears, read: short-term, duration: 4 weeks, inhalation, F, Wistar, Blood: Albumin/Globulin (A/G) Ratio + Blood: Globulin (G), Blood + Blood: Glucose (GLU), Blood + Blood: Potassium (K), Blood + Kidney: Urea….
Setting [9] is: short-term, duration: 4 weeks, inhalation, M, Wistar, Adrenal: Adrenal Cortex, Minimal Diffuse Hypertrophy + Blood: Calcium (CA), Blood + Blood: Total Protein (TP), Blood + Liver: Aspartate ….
The mark [10] stands for this setting: short-term, duration: 4 weeks, inhalation, M, Wistar, Blood: Chloride (CL), Blood + Blood: Glucose (GLU), Blood + Blood: Hematocrit (HCT) + Blood: Hemoglobin (HGB) + Blood: Red Blood Cell (RBC….
The mark [11] stands for this setting: short-term, duration: 28 days, oral, gavage, F, Sprague-Dawley, Blood: Hematocrit (HCT) + Blood: Hemoglobin (HGB) + Blood: Red Blood Cell (RBC) + Blood: White Blood Cell (WBC) + Kidney: Total Protein (TP….
Setting [12] is: short-term, duration: 28 days, oral, gavage, F, Sprague-Dawley, Blood: Lymphocyte + Blood: Mean Corpuscular Volume (MCV) + Blood: Monocytes + Central Nervous System: Spontaneous Locomotion + Intestine: ….
[13] abbreviates: short-term, duration: 28 days, oral, gavage, F, Sprague-Dawley, Blood: Prothrombin Time (PT) + Renal: Albumin (A), Urine.
Where [14] appears, read: short-term, duration: 28 days, oral, gavage, M, Sprague-Dawley, Blood: Hematocrit (HCT) + Blood: Hemoglobin (HGB) + Blood: White Blood Cell (WBC) + Central Nervous System: Spontaneous Locomotion + Hair/….
[15] abbreviates: short-term, duration: 28 days, oral, gavage, M, Sprague-Dawley, Blood: Mean Cell Hemoglobin (MCH) + Blood: Mean Corpuscular Hemoglobin Concentration (MCHC) + Blood: Mean Corpuscular Volume (MCV) + Blood: ….
[16] abbreviates: short-term, duration: 28 days, oral, gavage, M, Sprague-Dawley, Hair/Fur: Alopecia + Lung: Respiration Rate.
Setting [17] is: short-term, duration: 28 days, oral, gavage, F, Sprague-Dawley, Adrenal: Adrenal Gland Weight, Absolute + Adrenal: Adrenal Gland Weight, Relative.
Setting [18] is: short-term, duration: 28 days, oral, gavage, M/F, Sprague-Dawley, Liver: Liver Histopathology.
Where [19] appears, read: short-term, duration: 28 days, oral, gavage, M, Sprague-Dawley, Adrenal: Adrenal Gland Weight, Absolute + Adrenal: Adrenal Gland Weight, Relative.

SMILES strings stand for the structures. “And” between values parts separate entries of the source, which are not always exact repeats. Identical values can stand only once.

For `O=C(O)C(F)(F)C(F)(F)C(F)(F)C(F)(F)C(F)(F)C(F)(F)C(F)(F)C(F)(F)C(F)(F)C(F)(F)C(F)(F)C(F)(F)C(F)(F)F` [Perfluorotetradecanoic acid], the NOAEL is 1 mg/kg-day and 3 mg/kg-day (developmental, oral, gavage, F, Crl:CD(SD), generation: F1, F1: Developmental: Whole Body: Body Weight, Birth + F1: Developmental: Whole Body: Body Weight, Pup, PND 1 + F1: Developmental: Whole Body: …); 1 mg/kg-day and 3 mg/kg-day (developmental, oral, gavage, M/F, Crl:CD(SD), generation: F1, F1: Developmental: Whole Body: Litter Size + F1: Developmental: Whole Body: Male Pups per Pups Sexed + F1: Developmental: Whole Body: Mean …); 1 mg/kg-day and 3 mg/kg-day (developmental, oral, gavage, M, Crl:CD(SD), generation: F1, F1: Developmental: Whole Body: Body Weight, Birth + F1: Developmental: Whole Body: Body Weight, Pup, PND1 + F1: Developmental: Whole Body: …); 1 mg/kg-day under setting [1]; 3 mg/kg-day under setting [2]; 1 mg/kg-day under setting [3]. The NOAEL amounted to 3 mg/kg-day under setting [4]; 10 mg/kg-day under setting [5]; 20 mg/kg-day (short-term, duration: 10 days, oral, gavage, M, Sprague-Dawley, Endocrine: Multi-Organ: Follicle Stimulating Hormone (FSH), Serum + Endocrine: Multi-Organ: Leuteinizing Hormone (LH), Serum + Whole Body: …); 10 mg/kg-day under setting [6]. Also, the LOAEL (reproduction developmental, oral, gavage, F, Crl:CD(SD), generation: P0, P0: Cardiovascular: Heart: Heart Histopathology + P0: Cardiovascular: Heart: Heart Weight, Absolute + P0: Cardiovascular: Heart: Heart …) was found to be 3 mg/kg-day; the LOAEL under setting [1] came out at 3 mg/kg-day; the LOAEL under setting [2] came to 10 mg/kg-day; the LOAEL (reproduction developmental, oral, gavage, M, Crl:CD(SD), generation: P0, P0: Cardiovascular: Heart: Heart Histopathology + P0: Cardiovascular: Heart: Heart Weight, Absolute + P0: Cardiovascular: Heart: Heart …) is 3 mg/kg-day; the lowest-observed-adverse-effect level (LOAEL) under setting [3] was determined as 3 mg/kg-day; the lowest observed adverse effect level (LOAEL) under setting [4] amounted to 10 mg/kg-day. For the same compound, the LOAEL came to 20 mg/kg-day under setting [5] and 20 mg/kg-day under setting [6].
Turning to `FC(F)(I)C(F)(F)C(F)(F)C(F)(F)C(F)(F)C(F)(F)I` [1,6-Diiodoperfluorohexane], the LOAEL is 45.1 mg/m3 under setting [7]; 14.4 mg/m3 under setting [8]; 4.48 mg/m3 and 4.49 mg/m3 (short-term, duration: 4 weeks, inhalation, F, Wistar, Blood: Cholesterol (CHOL), Total, Blood + Blood: Hematocrit (HCT) + Blood: Hemoglobin (HGB) + Blood: Red Blood Cell (RBC) + Brain: Brain …); 45.1 mg/m3 under setting [9]; 4.48 mg/m3 and 4.49 mg/m3 (short-term, duration: 4 weeks, inhalation, M, Wistar, Adrenal: Adrenal Gland Weight, Relative + Blood: Globulin (G), Blood + Blood: Inorganic Phosphorous (PHOS), Blood + Blood: Reticulocytes + …); 14.4 mg/m3 under setting [10]. Besides, the LOAEL worked out at 1 mg/kg-day (short-term, duration: 28 days, oral, gavage, F, Sprague-Dawley, Blood: Activated Partial Thromboplastin Time (APTT) + Blood: Albumin/Globulin (A/G) Ratio + Blood: Mean Cell Hemoglobin (MCH) + Blood: Mean …); 3 mg/kg-day under setting [11]; 10 mg/kg-day under setting [12]; 20 mg/kg-day under setting [13]; 1 mg/kg-day (short-term, duration: 28 days, oral, gavage, M, Sprague-Dawley, Adrenal: Adrenal Gland Weight, Relative + Blood: Activated Partial Thromboplastin Time (APTT) + Blood: Albumin/Globulin (A/G) Ratio + Brain…); 3 mg/kg-day under setting [14]. In addition, the LOAEL came out at 10 mg/kg-day under setting [15] and 20 mg/kg-day under setting [16]. The NOAEL runs as follows: under setting [7], 14.4 mg/m3; (short-term, duration: 4 weeks, inhalation, F, Wistar, Adrenal: Adrenal Gland Weight, Relative + Basophils + Blood: Activated Partial Thromboplastin Time (APTT) + Blood: Mean Corpuscular …) 45.1 mg/m3; under setting [8], 4.48 mg/m3 and 4.49 mg/m3; under setting [9], 14.4 mg/m3; (short-term, duration: 4 weeks, inhalation, M, Wistar, Basophils + Blood: Activated Partial Thromboplastin Time (APTT) + Blood: Albumin/Globulin (A/G) Ratio + Blood: Mean Corpuscular Hemoglobin (…) 45.1 mg/m3; under setting [10], 4.48 mg/m3 and 4.49 mg/m3. In addition, the no observed adverse effect level (NOAEL) reads like this: (short-term, duration: 28 days, oral, gavage, F, Sprague-Dawley, Adrenal: Adrenal Gland Histopathology + Adrenal: Adrenal Gland Weight, Relative + Blood: Globulin (G) + Blood: Phosphorous (inorganic) (PHOS…) 20 mg/kg-day; under setting [11], 1 mg/kg-day; under setting [12], 3 mg/kg-day; under setting [13], 10 mg/kg-day; (short-term, duration: 28 days, oral, gavage, M, Sprague-Dawley, Adrenal: Adrenal Gland Histopathology + Blood: Globulin (G) + Blood: Lymphocyte + Blood: Monocytes + Blood: Platelet Count (PLT) + Blood: …) 20 mg/kg-day; under setting [14], 1 mg/kg-day. In addition, the NOAEL reads like this: under setting [15], 3 mg/kg-day; under setting [16], 10 mg/kg-day.
Take `CCOC(F)(C(F)(F)C(F)(F)C(F)(F)F)C(F)(C(F)(F)F)C(F)(F)F` (centres undefined) [3-Ethoxyperfluoro(2-methylhexane)]: the NOAEL by setting is: (developmental, duration: 26 days, parental, M/F, Sprague-Dawley, generation: F1, F1: Whole Body: Clinical Observations + F1: Whole Body: Litter Size + F1: Whole Body: Necropsy Appeared Normal + F1: Whole Body: Pup Body …) 1000 mg/kg-day; (reproduction developmental, duration: 2 weeks, oral, gavage, F, Sprague-Dawley, generation: P0, P0: Ovary: Ovary, Non-Neoplastic Lesions + P0: Uterus: Estrous Cycle + P0: Uterus: Implantation + P0: Whole Body: Clinical Observations + P0…) 1000 mg/kg-day; (reproduction developmental, duration: 2 weeks, oral, gavage, M, Sprague-Dawley, generation: P0, P0: Epididymis: Epididymis Weight, Absolute + P0: Epididymis: Epididymis Weight, Relative + P0: Epididymis: Epididymis, Non-Neoplastic …) 1000 mg/kg-day; under setting [17], 200 mg/kg-day; (short-term, duration: 28 days, oral, gavage, F, Sprague-Dawley, Ovary: Ovary Weight, Absolute + Ovary: Ovary Weight, Relative + Spleen: Spleen Weight, Absolute) 1000 mg/kg-day; (short-term, duration: 28 days, oral, gavage, M/F, Sprague-Dawley, Blood: Clinical Chemistry, Unspecified + Kidney: Urinalysis, Unspecified + Whole Body: Body Weight Change + Whole Body: Clinical …) 1000 mg/kg-day. Further, the NOAEL reads like this: under setting [18], 200 mg/kg-day; under setting [19], 200 mg/kg-day. Moreover, the LOAEL under setting [17] worked out at 1000 mg/kg-day; the LOAEL (short-term, duration: 28 days, oral, gavage, F, Sprague-Dawley, Spleen: Spleen Weight, Relative) amounted to 40 mg/kg-day; the LOAEL under setting [18] was 1000 mg/kg-day; the LOAEL under setting [19] came to 1000 mg/kg-day; the LOAEL (short-term, duration: 28 days, oral, gavage, M, Sprague-Dawley, Spleen: Spleen Weight, Absolute + Spleen: Spleen Weight, Relative) came to 40 mg/kg-day.

For the origin of these results see EPA's ToxValDB 9.5.
